Experimental data taken from patent publication US12473295B2, “Substituted straight chain spiro derivatives” (Janssen Pharmaceutica NV, priority 2019, dated 2025).
Where a name gives a salt, the structure may show the parent alone. Read-outs that look alike come from different tables or passages of the source.

Experiments:
MEIS1 mRNA = MEIS1 mRNA expression assay (Quantigene Singleplex) in MOLM14 cells; type: cell-based, human; settings: 48 hours incubation;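 also: MEIS1 transcript levels read by probe hybridization and normalized to RPL28 mRNA, with IC50 fitted to fold changes across a rising compound concentration series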
KO-52 cells = assay: Proliferation assay (spheroid growth, 8 days), KO-52 control cell line; type: cell-based, human; settings: read-out: spheroid assay_OneTime KO-52 IC50
Description: (§1) The anti-proliferative effect of menin/MLL protein/protein interaction inhibitor test compounds was assessed in human leukemia cell lines. The cell line MOLM14 harbors a MLL translocation and expresses the MLL fusion protein MLL-AF9, respectively, as well as the wildtype protein from the second allele. OCI-AML3 cells that carry the NPM1c gene mutation were also tested. […] KO-52 was used as a control cell line containing two MLL (KMT2A) wildtype alleles in order to exclude compounds that display general cytotoxic effects.
(§2) KO-52 and OCI-AML3 cell lines were propagated in alpha-MEM (Sigma Aldrich) supplemented with 20% heat-inactivated fetal bovine serum (HyClone), 2 mM L-glutamine (Sigma Aldrich) and 50 μg/ml gentamycin (Gibco).
(§3) In order to assess the anti-proliferative effects, 200 MOLM14 cells, 200 OCI-AML3 cells or 300 KO-52 cells were seeded in 200 μl media per well in […] round bottom, ultra-low attachment plates (Costar, catalogue number 7007). Cell seeding numbers were chosen based on growth curves to ensure linear growth throughout the experiment. Test compounds were added at different concentrations and the DMSO content was normalized to 0.3%. Cells were incubated for 8 days at 37° C. and 5% CO2. Spheroid like growth was measured in real-time by live-cell imaging (IncuCyteZOOM, Essenbio, 4× objective) acquiring images at day 8. Confluence (%) as a measure of spheroid size was determined using an integrated analysis tool.
(§4) In order to determine the effect of the test compounds over time, the confluence in each well as a measure of spheroid size, was calculated. Confluence of the highest dose of a reference compound was used as baseline for the LC (Low control) and the confluence of DMSO treated cells was used as 0% cytotoxicity (High Control, HC).
(§5) GraphPad Prism(version 7.00) was used to calculate the IC50. Dose-response equation was used for the plot of % Effect vs Log 10 compound concentration with a variable slope and fixing the maximum to 100% and the minimum to 0%.

[1] = molecular target: menin/MLL (terbium chelate-labeled menin, FITC-MBM1 peptide) (Homo sapiens (Human), UniProt O00255); assay: Menin/MLL homogenous time-resolved fluorescence (HTRF) assay; type: binding;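 also: IC50 from percent inhibition of HTRF signal, normalized between wells without competitor and wells with a saturating competitor that displaces FITC-MBM1 from His-tagged menin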
Sequence of menin/MLL (terbium chelate-labeled menin, FITC-MBM1 peptide) (O00255 other isoform, or with tags, fused parts or gaps): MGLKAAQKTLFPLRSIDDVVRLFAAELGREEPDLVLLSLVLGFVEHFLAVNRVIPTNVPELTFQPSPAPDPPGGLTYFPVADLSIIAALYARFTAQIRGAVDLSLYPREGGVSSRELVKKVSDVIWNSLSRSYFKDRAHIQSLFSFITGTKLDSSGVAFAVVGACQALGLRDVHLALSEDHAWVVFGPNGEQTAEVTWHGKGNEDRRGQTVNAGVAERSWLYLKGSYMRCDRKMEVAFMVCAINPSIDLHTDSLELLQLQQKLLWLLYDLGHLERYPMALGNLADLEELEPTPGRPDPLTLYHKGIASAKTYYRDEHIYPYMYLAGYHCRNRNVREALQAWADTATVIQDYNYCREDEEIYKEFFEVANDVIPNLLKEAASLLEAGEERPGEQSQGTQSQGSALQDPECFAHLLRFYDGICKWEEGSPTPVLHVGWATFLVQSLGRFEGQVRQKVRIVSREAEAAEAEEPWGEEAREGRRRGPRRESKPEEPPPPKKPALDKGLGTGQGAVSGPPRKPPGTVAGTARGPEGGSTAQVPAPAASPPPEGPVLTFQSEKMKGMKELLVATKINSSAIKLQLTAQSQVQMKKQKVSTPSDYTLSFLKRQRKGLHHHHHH

MOLM14 cells = assay: Proliferation assay (spheroid growth, 8 days), MOLM14; type: cell-based, human; settings: MOLM14, 8 days, read-out: spheroid assay_OneTime MOLM14 IC50;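 also: spheroid size read as confluence by live-cell imaging, compounds added at a range of concentrations with 0.3% DMSO, DMSO-treated wells = 0%, highest reference dose = low control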
OCI-AML3 cells = assay: Proliferation assay (spheroid growth, 8 days), OCI-AML3; type: cell-based, human; settings: Homo sapiens, OCI-AML-3, […], OCI-AML3, 8 days
Description: as §1, §2, §3, §4, §5

[2] = HTRF-30 min incubation IC50, 30 min incubation
[3] = read-out: HTRF-30 min incubation IC50, 30 min incubation

CCN(C(=O)c1cc(F)ccc1Oc1nncnc1N1CCC2(C1)CN([C@@H](CN)C(C)C)C2)C(C)C (single isomer, unassigned) [Compound 25, (*R)-2-((5-(2-(1-amino-3-methylbutan-2-yl)-2,6-diazaspiro[3.4]octan-6-yl)-1,2,4-triazin-6-yl)oxy)-N-ethyl-5-fluoro-N-isopropylbenzamide] was tested, and the IC50 (MEIS1 mRNA; Homo sapiens, MOLM-14, 48 h) was ~1200 nM, the IC50 (KO-52 cells; Homo sapiens, […]) was > 15000 nM and the IC50 [1, 2] was 10.5 nM. For the same compound, the IC50 (MOLM14 cells; Homo sapiens, MOLM-14, […]) was > 3750 nM.
In the case of CCN(C(=O)c1cc(F)ccc1Oc1nncnc1N1CCC2(C1)CN([C@@H](CCC(C)(C)N)C(C)C)C2)C(C)C (single isomer, unassigned) [Compound 31, (*S)-2-((5-(2-(6-amino-2,6-dimethylheptan-3-yl)-2,6-diazaspiro[3.4]octan-6-yl)-1,2,4-triazin-6-yl)oxy)-N-ethyl-5-fluoro-N-isopropylbenzamide], the IC50 (MEIS1 mRNA; Homo sapiens, MOLM-14, 48 h) is reported as > 1000 nM, the IC50 (KO-52 cells; Homo sapiens, […]) is reported as > 15000 nM and the IC50 [1, 2] is reported as 2.28 nM. For the same compound, the IC50 (MOLM14 cells; Homo sapiens, MOLM-14, […]) was > 940 nM.
For CCN(C(=O)c1cc(F)ccc1Oc1nncnc1N1CCC2(C1)CN([C@@H](CCC(C)(C)N(C)C)C(C)C)C2)C(C)C (single isomer, unassigned) [Compound 33, (*S)-2-((5-(2-(6-(dimethylamino)-2,6-dimethylheptan-3-yl)-2,6-diazaspiro[3.4]octan-6-yl)-1,2,4-triazin-6-yl)oxy)-N-ethyl-5-fluoro-N-isopropylbenzamide], the IC50 (MEIS1 mRNA; Homo sapiens, MOLM-14, 48 h) was > 1000 nM, the IC50 (KO-52 cells; Homo sapiens, […]) was > 15000 nM and the IC50 [1, 2] was 2.84 nM. The IC50 (MOLM14 cells; Homo sapiens, MOLM-14, […]) was > 940 nM.
CCN(C(=O)c1cc(F)ccc1Oc1nncnc1N1CCC2(C1)CN([C@@H](CCC(C)(C)NC)C(C)C)C2)C(C)C (single isomer, unassigned) [Compound 36, (*S)-2-((5-(2-(2,6-dimethyl-6-(methylamino)heptan-3-yl)-2,6-diazaspiro[3.4]octan-6-yl)-1,2,4-triazin-6-yl)oxy)-N-ethyl-5-fluoro-N-isopropylbenzamide hydrochloride] was tested, and the IC50 (MEIS1 mRNA; Homo sapiens, MOLM-14, 48 h) was > 1000 nM, the IC50 (KO-52 cells; Homo sapiens, […]) was > 15000 nM and the IC50 [1, 2] was 2.6 nM. For the same compound, the IC50 (MOLM14 cells; Homo sapiens, MOLM-14, […]) was > 940 nM.
CC(C)[C@H](CCC(C)(C)N)N1CC2(CCN(c3ncnnc3Oc3ccc(F)cc3-c3cncnc3C3CC3)C2)C1 (single isomer, unassigned) [Compound 38, (*S)-5-(6-(6-(2-(4-cyclopropylpyrimidin-5-yl)-4-fluorophenoxy)-1,2,4-triazin-5-yl)-2,6-diazaspiro[3.4]octan-2-yl)-2,6-dimethylheptan-2-amine] was tested, and the IC50 (MEIS1 mRNA; Homo sapiens, MOLM-14, 48 h) was ~1100 nM, the IC50 (KO-52 cells; Homo sapiens, […]) was > 15000 nM and the IC50 [1, 2] was 1.16 nM. The IC50 (MOLM14 cells; Homo sapiens, MOLM-14, […]) was 520 nM.
With CC(C)[C@H](CCC(N)=O)N1CC2(CCN(c3ncnnc3Oc3ccc(F)cc3-c3cncnc3C3CC3)C2)C1 (single isomer, unassigned) [Compound 44] the IC50 (MEIS1 mRNA; Homo sapiens, MOLM-14, 48 h) was > 2500 nM, the IC50 (KO-52 cells; Homo sapiens, […]) was > 15000 nM and the IC50 [1, 2] was 46.6 nM. For the same compound, the IC50 (MOLM14 cells; Homo sapiens, MOLM-14, […]) was > 3750 nM.
With CNC(=O)CC[C@H](C(C)C)N1CC2(CCN(c3ncnnc3Oc3ccc(F)cc3-c3cncnc3C3CC3)C2)C1 (single isomer, unassigned) [Compound 46, (*R)-4-(6-(6-(2-(4-cyclopropylpyrimidin-5-yl)-4-fluorophenoxy)-1,2,4-triazin-5-yl)-2,6-diazaspiro[3.4]octan-2-yl)-N,5-dimethylhexanamide] the IC50 (MEIS1 mRNA) was > 2500 nM, the IC50 (KO-52 cells) was > 15000 nM and the IC50 [1, 3] was 59.7 nM. For the same compound, the IC50 (MOLM14 cells) was > 3750 nM.
CCN(C(=O)c1cc(F)ccc1Oc1nncnc1N1CCC2(C1)CN([C@@H](CCCO)C(C)C)C2)C(C)C (single isomer, unassigned) [Compound 48, (*S)—N-ethyl-5-fluoro-2-((5-(2-(6-hydroxy-2-methylhexan-3-yl)-2,6-diazaspiro[3.4]octan-6-yl)-1,2,4-triazin-6-yl)oxy)-N-isopropylbenzamide] was tested, and the IC50 (MEIS1 mRNA) was > 1000 nM, the IC50 (KO-52 cells) was > 15000 nM and the IC50 [1, 3] was 70.4 nM. For the same compound, the IC50 (MOLM14 cells) was > 940 nM.
With CCN(C(=O)c1cc(F)ccc1Oc1nncnc1N1CCC2(C1)CN([C@@H](CCCN)C(C)C)C2)C(C)C [Compound 2, (S)-2-((5-(2-(6-amino-2-methylhexan-3-yl)-2,6-diazaspiro[3.4]octan-6-yl)-1,2,4-triazin-6-yl)oxy)-N-ethyl-5-fluoro-N-isopropylbenzamide formate] the IC50 (MEIS1 mRNA; Homo sapiens, MOLM-14, 48 h) was > 2500 nM, the IC50 (KO-52 cells; Homo sapiens, […]) was > 15000 nM and the IC50 [1, 2] was 3.31 nM. The IC50 (MOLM14 cells; Homo sapiens, MOLM-14, […]) was 2220 nM.
For CCN(C(=O)c1cc(F)ccc1Oc1nncnc1N1CCC2(C1)CN([C@@H](CCCNC(=O)NC)C(C)C)C2)C(C)C [Compound 9, (S)—N-ethyl-5-fluoro-N-isopropyl-2-((5-(2-(2-methyl-6-(3-methylureido)hexan-3-yl)-2,6-diazaspiro[3.4]octan-6-yl)-1,2,4-triazin-6-yl)oxy)benzamide], the IC50 (KO-52 cells; Homo sapiens, […]) was > 15000 nM, the IC50 [1, 2] was 44.7 nM and the IC50 (MOLM14 cells; Homo sapiens, MOLM-14, […]) was > 3750 nM.
For CCN(C(=O)c1cc(F)ccc1Oc1nncnc1N1CCC2(C1)CN([C@@H](CCCNC)C(C)C)C2)C(C)C [Compound 20, (S)—N-ethyl-5-fluoro-N-isopropyl-2-((5-(2-(2-methyl-6-(methylamino)hexan-3-yl)-2,6-diazaspiro[3.4]octan-6-yl)-1,2,4-triazin-6-yl)oxy)benzamide hydrochloride], the IC50 (KO-52 cells; Homo sapiens, […]) was > 15000 nM and the IC50 (MOLM14 cells; Homo sapiens, MOLM-14, […]) was > 940 nM.
Compound CCN(C(=O)c1cc(F)ccc1Oc1nncnc1N1CC2(CCN(C(CCCN(C)CCOC)C(C)C)C2)C1)C(C)C (stereo not drawn) [Compound 302, N-ethyl-5-fluoro-N-isopropyl-2-((5-(6-(6-((2-methoxyethyl)(methyl)amino)-2-methylhexan-3-yl)-2,6-diazaspiro[3.4]octan-2-yl)-1,2,4-triazin-6-yl)oxy)benzamide fumarate] has an IC50 (OCI-AML3 cells) of 770 nM, an IC50 (MEIS1 mRNA; Homo sapiens, MOLM-14, 48 h) of 160 nM and an IC50 [1, 2] of 0.26 nM. The IC50 (MOLM14 cells; Homo sapiens, MOLM-14, […]) was 97 nM.
Compound CCN(C(=O)c1cc(F)ccc1Oc1nnc(NC)nc1N1CCC2(C1)CN([C@H](CCCN(C)CCOC)C(C)C)C2)C(C)C [Compound 395, (R)-N-ethyl-5-fluoro-N-isopropyl-2-((5-(2-(6-((2-methoxyethyl)(methyl)amino)-2-methylhexan-3-yl)-2,6-diazaspiro[3.4]octan-6-yl)-3-(methylamino)-1,2,4-triazin-6-yl)oxy)benzamide formate] has an IC50 (OCI-AML3 cells) of 280 nM, an IC50 (MEIS1 mRNA; Homo sapiens, MOLM-14, 48 h) of 140 nM and an IC50 [1, 2] of 0.2 nM. For the same compound, the IC50 (MOLM14 cells; Homo sapiens, MOLM-14, […]) was 56 nM.
For CCN(C(=O)c1cc(F)ccc1Oc1nnc(Cl)nc1N1CCC2(C1)CN([C@H](CCCN)C(C)C)C2)C(C)C [Compound 406, (R)-2-((5-(2-(6-amino-2-methylhexan-3-yl)-2,6-diazaspiro[3.4]octan-6-yl)-3-chloro-1,2,4-triazin-6-yl)oxy)-N-ethyl-5-fluoro-N-isopropylbenzamide formate], the IC50 (OCI-AML3 cells) was 490 nM, the IC50 (MEIS1 mRNA; Homo sapiens, MOLM-14, 48 h) was 130 nM and the IC50 [1, 2] was 0.033 nM. For the same compound, the IC50 (MOLM14 cells; Homo sapiens, MOLM-14, […]) was 220 nM.
CCN(C(=O)c1cc(F)ccc1Oc1nnc(NC)nc1N1CCC2(C1)CN([C@H](CCCN)C(C)C)C2)C(C)C [Compound 409, (R)-2-((5-(2-(6-amino-2-methylhexan-3-yl)-2,6-diazaspiro[3.4]octan-6-yl)-3-(methylamino)-1,2,4-triazin-6-yl)oxy)-N-ethyl-5-fluoro-N-isopropylbenzamide hydrochloride] was tested, and the IC50 (OCI-AML3 cells) was 1850 nM, the IC50 (MEIS1 mRNA; Homo sapiens, MOLM-14, 48 h) was ~440 nM and the IC50 [1, 2] was 0.12 nM. For the same compound, the IC50 (MOLM14 cells; Homo sapiens, MOLM-14, […]) was 640 nM.
Work on CCN(C(=O)c1cc(F)ccc1Oc1nnc(OC)nc1N1CCC2(C1)CN([C@H](CCCN(C)C)C(C)C)C2)C(C)C [Compound 410, (R)-2-((5-(2-(6-(dimethylamino)-2-methylhexan-3-yl)-2,6-diazaspiro[3.4]octan-6-yl)-3-methoxy-1,2,4-triazin-6-yl)oxy)-N-ethyl-5-fluoro-N-isopropylbenzamide formate] yielded an IC50 (OCI-AML3 cells) of 380 nM, an IC50 (MEIS1 mRNA; Homo sapiens, MOLM-14, 48 h) of 120 nM and an IC50 [1, 2] of 0.12 nM. It also gave an IC50 (MOLM14 cells; Homo sapiens, MOLM-14, […]) of 160 nM.
In the case of CCN(C(=O)c1cc(F)ccc1Oc1nnc(Cl)nc1N1CCC2(C1)CN([C@H](CCCN(C)C)C(C)C)C2)C(C)C [Compound 411, (R)-2-((3-chloro-5-(2-(6-(dimethylamino)-2-methylhexan-3-yl)-2,6-diazaspiro[3.4]octan-6-yl)-1,2,4-triazin-6-yl)oxy)-N-ethyl-5-fluoro-N-isopropylbenzamide formate], the IC50 (OCI-AML3 cells) is reported as 680 nM, the IC50 (MEIS1 mRNA; Homo sapiens, MOLM-14, 48 h) is reported as 110 nM and the IC50 [1, 2] is reported as 0.33 nM. It also gave an IC50 (MOLM14 cells; Homo sapiens, MOLM-14, […]) of 210 nM.
CCN(C(=O)c1cc(F)ccc1Oc1nnc(C)nc1N1CCC2(C1)CN([C@H](CCCN)C(C)C)C2)C(C)C [Compound 413, (R)-2-((5-(2-(6-amino-2-methylhexan-3-yl)-2,6-diazaspiro[3.4]octan-6-yl)-3-methyl-1,2,4-triazin-6-yl)oxy)-N-ethyl-5-fluoro-N-isopropylbenzamide formate] was tested, and the IC50 (OCI-AML3 cells) was 1490 nM, the IC50 (MEIS1 mRNA; Homo sapiens, MOLM-14, 48 h) was ~590 nM and the IC50 [1, 2] was 0.051 nM. It also gave an IC50 (MOLM14 cells; Homo sapiens, MOLM-14, […]) of 720 nM.
